pIC50: −log10 of the molar value.
Assays:
Type in all cases: cell-based
[1] = test system: MDA-MB-231 breast cancer cells; test: clonogenic assay (colony formation), MDA-MB-231; settings: Homo sapiens, 336 h; MDA-MB-231, 10 μM analogs, 14 days; read-out: Effect on cell proliferation (colony formation) (% of vehicle control)
Protocol: To determine if these analogs have anti-migration and anti-invasion activities in different cancer cell lines, transwell migration assays were performed using MDA-MB-231 breast cancer cells (FIG. 3) and HeLa cells (FIG. 5) for all synthetic analogs. […] Next, clonogenic assays were performed on the breast cancer cells treated with the compounds to rule out any indirect effect on cell migration due to cytotoxicity (FIG. 4). MDA-MB-231 cells were allowed to grow for 14 days in six-well plates in the presence or absence of the synthetic compounds at 10 μM.
To rule out any indirect effect on cell migration due to cytotoxicity, clonogenic assays were performed on the breast cancer cells treated with the compounds. MDA-MB-231 cells were allowed to grow for 14 days in six-well plates in the presence or absence of the synthetic compounds at 10 μM. […] For example, analog 3g blocked both cell migration (81.4%) and colony formation (42.7%). For these analogs cytotoxity may have partially contributed to their overall anti-migration effect. The cell toxicity data for all analogs are listed in Table 1 along with anti-migration data for comparison.

[2] = antimigration efficacy of additional thiazole compounds (Table 3); settings: cell line not given; read-out: IC50 (anti-migration)
Text: (§1) The additional thiazole compounds were synthesized and tested for antimigration efficacy and cytotoxicity, with results shown in TABLE 3.

[3] = cytotoxicity of additional thiazole compounds (Table 3); settings: cell line not given
Text: as §1

| SMILES | activity at 10 µM [1] [%] | pIC50 [2] | Cytotoxicity (Survival at 1 μM) [3] [%] |
| --- | --- | --- | --- |
| Nc1nc(-c2ccccc2)cs1 [Compound 2a, 2-Amino-4-phenylthiazole] | 104 | – | – |
| O=C(Nc1nc(-c2ccccc2)cs1)c1ccco1 [Compound 3b, N-(4-Phenylthiazol-2-yl)furan-2-carboxamide] | 98.8 | – | – |
| O=C(Nc1nc(-c2ccccc2)cs1)c1ccc(Cl)cc1 [Compound 3c, 4-Chloro-N-(4-phenylthiazol-2-yl)benzamide] | 95 | – | – |
| O=C(Nc1nc(-c2ccccc2)cs1)c1ccc(Br)cc1 [Compound 3d, 4-Bromo-N-(4-phenylthiazol-2-yl)benzamide] | 98.6 | – | – |
| COc1cc(C(=O)Nc2nc(-c3ccccc3)cs2)cc(OC)c1OC [Compound 3e, 3,4,5-Trimethoxy-N-(4-phenylthiazol-2-yl)benzamide] | 80.9 | – | – |
| Cc1ccc(-c2csc(NC(=O)c3cccs3)n2)c(C)c1 [Compound 3f, N-(4-(2,4-Dimethylphenyl)thiazol-2-yl)thiophene-2-carboxamide] | 67.5 | – | – |
| O=C(Nc1nc(-c2ccccc2)cs1)c1cccnc1 [Compound 3h, N-(4-Phenylthiazol-2-yl)nicotinamide] | 103 | – | – |
| O=C(Nc1nc(-c2ccccc2)cs1)C1CCCC1 [Compound 3k, N-(4-Phenylthiazol-2-yl)cyclopentanecarboxamide] | 99.8 | – | – |
| O=C(Nc1nc(-c2ccccc2)cs1)C1CCCCC1 [Compound 3l, N-(4-Phenylthiazol-2-yl)cyclohexanecarboxamide] | 103 | – | – |
| CCCCCC(=O)Nc1nc(-c2ccccc2)cs1 [Compound 3m, N-(4-Phenylthiazol-2-yl)hexanamide] | 90.7 | – | – |
| CN(C(=O)c1ccc(Br)cc1)c1nc(-c2ccccc2)cs1 [Compound 4a, 4-Bromo-N-methyl-N-(4-phenylthiazol-2-yl)benzamide] | 108 | – | – |
| COc1cccc(C(=O)Nc2nc(-c3cc(OC)c(OC)c(OC)c3)cs2)c1 [Compound 14r, 3-Methoxy-N-(4-(3,4,5-trimethoxyphenyl)thiazol-2-yl)benzamide] | – | 4.85 | 92.6 |
| Cc1csc(=NC(=O)c2ccccc2)n1C [Compound 15a, N-(3,4-Dimethylthiazol-2(3H)-ylidene)benzamide] | – | 4.82 | 102.6 |
| Cn1c(-c2ccccc2Cl)csc1=NC(=O)c1ccccc1 [Compound 15b, N-(4-(2-Chlorophenyl)-3-methylthiazol-2(3H)-ylidene)benzamide] | – | 6.57 | 72.2 |
| Cn1c(-c2cccc(Br)c2)csc1=NC(=O)c1ccccc1 [Compound 15c, N-(4-(3-Bromophenyl)-3-methylthiazol-2(3H)-ylidene)benzamide] | – | 6.52 | 94.4 |
| Cn1c(-c2ccc(Br)cc2)csc1=NC(=O)c1ccccc1 [Compound 15d, N-(4-(4-Bromophenyl)-3-methylthiazol-2(3H)-ylidene)benzamide] | – | 6.90 | 59.3 |
| Cn1c(-c2cccc(Cl)c2)csc1=NC(=O)c1ccccc1 [Compound 15e, N-(4-(3-Chlorophenyl)-3-methylthiazol-2(3H)-ylidene)benzamide] | – | 6.44 | 35.2 |
| Cn1c(-c2cc(C(F)(F)F)cc(C(F)(F)F)c2)csc1=NC(=O)c1ccccc1 [Compound 15f, N-(4-(3,5-Bis(trifluoromethyl)phenyl)-3-methylthiazol-2(3H)-ylidene)benzamide] | – | 7.02 | 79.8 |
| COc1cc(-c2cs/c(=N/C(=O)c3ccccc3)n2C)cc(OC)c1OC [Compound 15g, N-(4-(3,4,5-Trimethoxyphenyl)-3-methylthiazol-2(3H)-yliene)-benzamide] | – | 5.97 | 88.4 |
| Cc1sc(=NC(=O)c2ccccc2)n(C)c1-c1ccccc1 [Compound 15h, N-(3,5-Dimethyl-4-phenylthiazol-2(3H)-ylidene)benzamide] | – | 6.71 | 68.4 |

| SMILES | activity at 10 µM [1] [%] | pIC50 [2] | Cytotoxicity (Survival at 1 μM) [3] [%] |
| --- | --- | --- | --- |
| Cc1sc(=NC(=O)c2ccccc2)n(C)c1-c1ccc(F)cc1 [Compound 15i, N-(4-(4-Fluorophenyl)-3,5-dimethylthiazol-2(3H)-ylidene)benzamide] | – | 6.07 | 83.8 |
| Cc1ccc(-c2cn(C)/c(=N\C(=O)c3ccccc3)s2)cc1 [Compound 15j, N-(3-Methyl-5-(p-toyl)thiazol-2(3H)-ylidene)benzamide] | – | < 4.60 | 112.6 |
| COc1ccc(C(=O)N=c2scc(-c3cc(OC)c(OC)c(OC)c3)n2C)cc1 [Compound 15k, 4-Methoxy-N-(3-methyl-4-(3,4,5-trimethoxyphenyl)thiazol-2(3H)-ylidene)benzamide] | – | 5.10 | 105.6 |
| COc1cc(-c2csc(=NC(=O)c3ccc(Cl)cc3)n2C)cc(OC)c1OC [Compound 15l, 4-Chloro-N-(3-methyl-4-(3,4,5-trimethoxyphenyl)thiazol-2(3H)-ylidene)benzamide] | – | 6.12 | 77.6 |
| COc1cccc(C(=O)N=c2scc(-c3cc(OC)c(OC)c(OC)c3)n2C)c1 [Compound 15m, 3-Methoxy-N-(3-methyl-4-(3,4,5-trimethoxyphenyl)thiazol-2(3H)-ylidene)benzamide] | – | < 4.30 | 103.5 |
| Cn1c(C2CC2)csc1=NC(=O)c1ccccc1 [Compound 15n, N-(4-Cyclopropyl-3-methylthiazol-2(3H)-ylidene)benzamide] | – | 6.98 | 90.7 |
| COc1cc(C(=O)/N=c2/scc(-c3cc(OC)c(OC)c(OC)c3)n2C)cc(OC)c1OC [Compound 15o, 3,4,5-Trimethoxy-N-(3-methyl-4-(3,4,5-trimethoxyphenyl)thiazol-2(3H)-ylidene) benzamide] | – | 5.71 | 81.5 |
| CN(C(=O)c1ccccc1)c1nc(-c2ccccc2Cl)cs1 [Compound 16a, N-(4-(2-Chlorophenyl)thiazol-2-yl)-N-methylbenzamide] | – | 7.38 | 88.9 |
| CN(C(=O)c1ccccc1)c1nc(-c2cccc(Br)c2)cs1 [Compound 16b, N-(4-(3-Bromophenyl)thiazol-2-yl)-N-methylbenzamide] | – | 6.36 | 104.4 |
| CN(C(=O)c1ccccc1)c1nc(-c2ccc(Br)cc2)cs1 [Compound 16c, N-(4-(4-Bromophenyl)thiazol-2-yl)-N-methylbenzamide] | – | 6.50 | 65.4 |
| COc1cc(-c2csc(N(C)C(=O)c3ccccc3)n2)cc(OC)c1OC [Compound 16d, N-Methyl-N-(4-(3,4,5-trimethoxyphenyl)thiazol-2-yl)benzamide] | – | 5.00 | 96.4 |
| Cc1sc(N(C)C(=O)c2ccccc2)nc1-c1ccc(F)cc1 [Compound 16e, N-(4-(4-Fluorophenyl)-5-methylthiazol-2-yl)-N-methylbenzamide] | – | 5.79 | 107.6 |
| Cc1ccc(-c2cnc(N(C)C(=O)c3ccccc3)s2)cc1 [Compound 16f, N-Methyl-N-(5-(p-tolyl)thiazol-2-yl)benzamide] | – | 5.96 | 59.3 |
| COc1ccc(C(=O)N(C)c2nc(-c3cc(OC)c(OC)c(OC)c3)cs2)cc1 [Compound 16g, 4-Methoxy-N-methyl-N-(4-(3,4,5-trimethoxyphenyl)thiazol-2-yl)benzamide] | – | 6.51 | 100.0 |
| COc1ccc(C(=O)N(C)c2nc(-c3cc(OC)c(OC)c(OC)c3)cs2)cc1OC [Compound 16h, 3,4-Dimethoxy-N-methyl-N-(4-(3,4,5-trimethoxyphenyl)thiazol-2-yl)benzamide] | – | < 4.60 | 101.9 |
| COc1ccc(C(=O)N(C)c2nc(-c3cc(OC)c(OC)c(OC)c3)cs2)c(OC)c1 [Compound 16i, 2,4-Dimethoxy-N-methyl-N-(4-(3,4,5-trimethoxyphenyl)thiazol-2-yl)benzamide] | – | 5.30 | 118.5 |
| COc1cc(C(=O)N(C)c2nc(-c3cc(OC)c(OC)c(OC)c3)cs2)cc(OC)c1OC [Compound 16j, 3,4,5-Trimethoxy-N-methyl-N-(4-(3,4,5-trimethoxyphenyl)thiazol-2-yl)benzamide] | – | 6.33 | 114.8 |
| COc1cc(-c2csc(N(C)C(=O)c3cccc(OC)c3OC)n2)cc(OC)c1OC [Compound 16k, 2,3-Dimethoxy-N-methyl-N-(4-(3,4,5-trimethoxyphenyl)thiazol-2-yl)benzamide] | – | 6.97 | 117.6 |
| COc1ccccc1C(=O)N(C)c1nc(-c2cc(OC)c(OC)c(OC)c2)cs1 [Compound 16l, 2-Methoxy-N-methyl-N-(4-(3,4,5-trimethoxyphenyl)thiazol-2-yl)benzamide] | – | < 4.60 | 109.3 |
| COc1cccc(C(=O)N(C)c2nc(-c3cc(OC)c(OC)c(OC)c3)cs2)c1 [Compound 16m, 3-Methoxy-N-methyl-N-(4-(3,4,5-trimethoxyphenyl)thiazol-2-yl)benzamide] | – | 6.19 | 88.9 |

Source: US9650369B2, “Anti-migration and anti-invasion thiazole analogs for treatment of cellular proliferative disease” (XAVIER UNIVERSITY OF LOUISIANA, priority 2012, dated 2017)
